From paper PMC4822253, “Inhibition of BMP and of TGFβ receptors downregulates expression of XIAP and TAK1 leading to lung cancer cell death” (Molecular Cancer, 2016)

Key:
H1299 Id1-luc cells = assay: Id1-promoter luciferase reporter assay; type: cell-based
Protocol: H1299 cells were stably transfected with the Id1-promoter luciferase reporter. Treated cells were lysed with 1X luciferase lysis buffer (Promega). Samples were added to luciferase assay substrate (Promega) and luminsescence measured by the TD-20/20 Luminometer (Turner Designs/Turner BioSystems, Sunnyvale, CA). Control samples included luciferase assay substrate alone and luciferase assay substrate plus 1X reporter lysis buffer.

H1299 cells [1] = assay: Western blot analysis of cells in culture; type: cell-based
Protocol: Total cellular protein was prepared using RIPA buffer containing a protease inhibitor cocktail and protein concentration was measured using the BCA assay as described. In brief, protein was analyzed by SDS-PAGE, transferred to nitrocellulose (Schleicher and Schuell, Keene, NH). After blocking, the blots were incubated overnight at 4 °C with the appropriate primary antibody in Tris-buffered saline with 1 % Tween (TBST) and 5 % BSA. Secondary antibodies were applied for 1 h at room temperature. Specific proteins were detected using the enhanced chemiluminescence system (Amersham, Arlington Heights, IL). The primary antibodies that were used were rabbit monoclonal anti-pSmad 1/5, rabbit monoclonal anti-pSmad2, rabbit monoclonal anti-Smad2, rabbit monoclonal anti-pTAK1, rabbit monoclonal XIAP, rabbit anti-monoclonal p-p65, rabbit monoclonal anti-activated caspase-3, rabbit polyclonal anti-BMPRII, and rabbit monoclonal anti-EGR-1 (Cell signaling Technology, Danvers MA), Rabbit monoclonal anti-TAK1 (Invitrogen, Grand Island NY), rabbit anti-actin, an affinity isolated antigen specific antibody (Sigma, Saint Louis, MO), rabbit monoclonal anti-Id1 and rabbit monoclonal anti-Id3 (Calbioreagents, San Mateo, CA), rabbit polyclonal anti-GAPDH (Sigma, St. Louis, MO) and rabbit polyclonal pMEK-1/2 (Cell Signaling, Danvers MA).

H1299 cells [2] = assay: Cell death assay (ethidium bromide uptake); type: cell-based; conditions: H1299 cells; after 3 days
Protocol: Cells were plated in 6 well plates with 10^6 cells per well. Three days following treatment with inhibitor(s) and/or transfection the adherent and floating cells were harvested and incubated with 0.1 mg/ml of ethidium bromide. Cells that die by necrosis or apoptosis lose membrane integrity and take up ethidium bromide. Immediately after staining approximately 100 cells were counted and the percentage of cells that took up ethidium bromide was determined.

Alk5/TGFbetaR1 = target: T1, Alk5/TGFbetaR1 (Homo sapiens, UniProt P36897); conditions: cited from earlier work
T1 construct: purchased Reaction Biology Corporation (Malvern, PA)
T1 sequence (P36897 34-503): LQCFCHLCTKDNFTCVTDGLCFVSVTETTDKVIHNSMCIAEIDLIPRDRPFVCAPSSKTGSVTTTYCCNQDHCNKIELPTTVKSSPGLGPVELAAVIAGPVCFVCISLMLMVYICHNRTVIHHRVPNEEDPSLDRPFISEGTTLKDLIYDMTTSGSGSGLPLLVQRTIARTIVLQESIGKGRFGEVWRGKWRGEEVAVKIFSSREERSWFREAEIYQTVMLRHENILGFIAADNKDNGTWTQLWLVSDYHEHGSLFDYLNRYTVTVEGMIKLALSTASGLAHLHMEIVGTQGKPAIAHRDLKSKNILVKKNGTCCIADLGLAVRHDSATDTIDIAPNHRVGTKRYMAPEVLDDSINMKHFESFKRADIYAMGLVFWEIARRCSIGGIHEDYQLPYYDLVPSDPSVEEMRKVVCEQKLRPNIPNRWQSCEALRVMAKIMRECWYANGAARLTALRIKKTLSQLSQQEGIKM

BMPRII = target: T2, BMPRII (Homo sapiens, UniProt Q13873); design: method as in PMID 23639540; conditions: reported literature (Table 1); cited from earlier work
T2 construct: purchased Reaction Biology Corporation (Malvern, PA)
T2 sequence (Q13873 27-1038): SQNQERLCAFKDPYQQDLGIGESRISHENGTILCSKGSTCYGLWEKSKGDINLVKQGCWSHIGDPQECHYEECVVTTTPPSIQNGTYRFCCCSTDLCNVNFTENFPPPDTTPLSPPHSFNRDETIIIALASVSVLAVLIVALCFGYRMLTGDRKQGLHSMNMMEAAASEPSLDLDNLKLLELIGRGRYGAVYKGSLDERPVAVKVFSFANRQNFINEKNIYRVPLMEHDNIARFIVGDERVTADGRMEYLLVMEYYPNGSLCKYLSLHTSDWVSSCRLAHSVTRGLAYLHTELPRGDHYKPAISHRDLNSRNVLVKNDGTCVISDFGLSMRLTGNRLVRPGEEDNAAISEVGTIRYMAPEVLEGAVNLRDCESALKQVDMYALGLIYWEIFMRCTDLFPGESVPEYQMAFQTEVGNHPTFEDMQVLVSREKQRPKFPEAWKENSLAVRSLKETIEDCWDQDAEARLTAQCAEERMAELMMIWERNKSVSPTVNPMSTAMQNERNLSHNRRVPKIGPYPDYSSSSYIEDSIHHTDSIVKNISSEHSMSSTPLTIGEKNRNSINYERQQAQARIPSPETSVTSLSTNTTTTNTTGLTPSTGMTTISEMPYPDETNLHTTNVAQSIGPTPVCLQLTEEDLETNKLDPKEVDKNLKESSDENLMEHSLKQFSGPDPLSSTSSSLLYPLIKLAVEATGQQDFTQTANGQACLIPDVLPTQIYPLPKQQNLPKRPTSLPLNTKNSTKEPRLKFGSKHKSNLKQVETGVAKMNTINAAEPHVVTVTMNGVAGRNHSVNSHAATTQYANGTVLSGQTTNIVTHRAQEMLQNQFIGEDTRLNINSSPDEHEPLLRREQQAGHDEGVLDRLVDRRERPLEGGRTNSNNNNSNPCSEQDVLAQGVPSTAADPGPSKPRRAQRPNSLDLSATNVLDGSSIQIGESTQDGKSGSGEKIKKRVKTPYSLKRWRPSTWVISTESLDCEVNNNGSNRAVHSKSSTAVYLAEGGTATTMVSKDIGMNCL

Alk3/BMPR1A = Alk3/BMPR1A (Homo sapiens, UniProt P36894); design: purchased Reaction Biology Corporation (Malvern, PA); method as in PMID 23639540; conditions: reported literature; cited from earlier work
Alk3/BMPR1A, sequence (P36894 24-532): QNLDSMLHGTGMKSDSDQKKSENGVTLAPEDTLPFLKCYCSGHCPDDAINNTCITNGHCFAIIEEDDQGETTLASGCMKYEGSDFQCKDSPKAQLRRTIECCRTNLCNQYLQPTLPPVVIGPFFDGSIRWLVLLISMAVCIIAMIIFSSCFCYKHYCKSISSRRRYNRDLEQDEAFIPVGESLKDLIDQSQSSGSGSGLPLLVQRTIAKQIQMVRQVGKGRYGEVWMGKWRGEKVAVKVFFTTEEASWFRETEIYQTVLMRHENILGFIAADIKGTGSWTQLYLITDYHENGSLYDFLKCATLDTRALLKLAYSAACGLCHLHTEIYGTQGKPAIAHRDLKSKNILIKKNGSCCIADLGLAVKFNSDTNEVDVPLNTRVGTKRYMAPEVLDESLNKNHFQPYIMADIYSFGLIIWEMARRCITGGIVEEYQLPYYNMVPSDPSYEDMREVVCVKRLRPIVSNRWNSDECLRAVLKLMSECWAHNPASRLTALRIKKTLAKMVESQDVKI

Alk2/ACVRR1 = target: T3, Alk2/ACVRR1 (Homo sapiens, UniProt Q04771); design: purchased Reaction Biology Corporation (Malvern, PA); conditions: reported literature; read-out: IC50 Alk2/ACVRR1; cited from earlier work
T3 sequence (Q04771 21-509): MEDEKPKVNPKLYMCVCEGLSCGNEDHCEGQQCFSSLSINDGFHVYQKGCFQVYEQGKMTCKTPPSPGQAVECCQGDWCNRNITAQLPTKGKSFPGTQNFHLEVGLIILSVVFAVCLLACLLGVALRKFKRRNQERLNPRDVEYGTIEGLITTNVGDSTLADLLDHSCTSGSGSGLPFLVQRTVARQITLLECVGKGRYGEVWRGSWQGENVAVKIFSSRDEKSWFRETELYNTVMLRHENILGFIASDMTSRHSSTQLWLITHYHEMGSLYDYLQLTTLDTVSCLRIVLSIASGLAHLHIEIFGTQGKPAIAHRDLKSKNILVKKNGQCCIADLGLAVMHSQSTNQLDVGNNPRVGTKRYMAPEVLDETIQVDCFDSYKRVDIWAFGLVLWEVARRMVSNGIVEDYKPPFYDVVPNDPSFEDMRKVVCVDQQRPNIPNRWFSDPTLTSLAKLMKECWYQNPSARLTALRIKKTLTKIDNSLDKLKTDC

H1299 cells [3] = assay: Cell counts (live cells, trypan blue); type: cell-based; conditions: compound alone, 7 days
Protocol: (§1) Cells were plated into 6 well plates at 10^5 cells per well and treated with 1 μM DMSO or antagonist for 7 days. The cells were detached with trypsin, stained with trypan blue, and the number of live cells counted using a hemocytometer.

A549 cells = assay: Cell counts (live cells, trypan blue); type: cell-based; conditions: compound alone, 7 days
Protocol: as §1

## O=C(NOC[C@H](O)CO)c1ccc(F)c(F)c1Nc1ccc(I)cc1F [PD0325901]
H1299 Id1-luc cells; 48 h
  promoter activity of Id1 (Id-1 luciferase reporter): did not regulate

## COc1cc(O)c2c(c1)/C=C/C[C@H](O)[C@H](O)C(=O)/C=C\C[C@H](C)OC2=O [5Z, 5Z-7-oxozeaenol]
H1299 Id1-luc cells; 2 μM, after 24 h
  Id1 promoter activity: suppressed
H1299 Id1-luc cells; after 48 h
  Id1 promoter activity: no longer suppressed
H1299 cells [1]; H1299 cells, after 24 h
  expression of pSmad 1/5, Id1, and pTAK1: dose-related decrease
H1299 cells [1]; H1299 cells, after 48 h
  expression of Id1, pSmad 1/5, and pTAK1: increasing

## CC(C)Oc1ccc(-c2cnc3c(-c4ccnc5ccccc45)cnn3c2)cc1 [DMH1]
H1299 cells [2]
  cell death: little cell death
Alk5/TGFbetaR1
  activity for TGFβ receptors: no activity
BMPRII
  inhibition of BMPRII: does not occur
H1299 cells [1]; H1299 cells, 3 days
  expression of Smad2: did not show significant regulation
H1299 cells [1]; H1299 cells, after 3 days (cell line not stated for DMH1 and LDN)
  expression of XIAP: did not downregulate
H1299 cells [1]; H1299 cells, after 3 days, alone or in combination with SB
  activation of caspase-3: did not activate
H1299 cells [1]; in vitro 48 h, cell line not stated in legend
  activation of Smad2 and TAK1: activation
Alk3/BMPR1A
  IC50: 5 nM
Alk2/ACVRR1
  IC50: 108 nM

## Cc1cccc(-c2[nH]c(C(C)(C)C)nc2-c2ccc3c(c2)OCO3)n1 [SB]
H1299 cells [3]
  growth (cell counts): little effect
A549 cells
  growth (cell counts): growth suppression
H1299 Id1-luc cells; compound alone
  Id1 promoter activity: increase
H1299 cells [1]; H1299 cells, compound alone, increasing doses
  expression of Id1: dose-related increase
